According to publication PMC7551609 (Viruses, 2020):
Entries after “also recorded” stand apart in the source; their conditions may differ. Read-outs that look alike come from different tables or passages of the source.

What was measured:
[1] = tested on: A549 cells; experiment: MTT cell viability in A549 cells; type: cell-based, human; conditions: highest concentration used 50.00 µM, sentence also cites [17]
[2] = tested on: ZIKV Paraiba/2015; experiment: Viral inhibition assay, post-infection treatment, Vero cells; type: cell-based, Zika virus; conditions: for EC50: ZIKV Paraiba/2015, Vero cells, post-infection treatment, 36 h; for inhibitor category based on SI-MTT and SI-XTT: post-treatment, Paraiba/2015, Vero
[3] = tested on: ZIKV MR-766 strain; experiment: Viral inhibition assay, post-treatment, old World strain, Vero cells; type: cell-based, Zika virus; conditions: for inhibitor category based on SI-MTT and SI-XTT: ZIKV MR-766, Vero; for EC50: old World ZIKV MR-766, Vero cells, post-treatment; for MIC: old World ZIKV MR-766 strain, read-out: MR766 MIC (maximum effective concentration)
[4] = tested on: Vero cells; experiment: MTT cell viability assay in Vero cells; type: cell-based, African green monkey; conditions: non-infected Vero cells, 36 h post-treatment
[5] = tested on: ZIKV Paraiba/2015; experiment: Viral inhibition assay, co-treatment, Vero cells; type: cell-based, Zika virus; conditions: for Co-treatment MIC (maximum effective concentration): Vero cells, ZIKV Paraiba/2015, co-treatment
[6] = tested on: ZIKV PRVABC59 strain; experiment: Viral inhibition assay, post-treatment, new World strain, Vero cells; type: cell-based, Zika virus; conditions: for inhibitor category based on SI-MTT and SI-XTT: ZIKV PRVABC59, Vero; for EC50: new World ZIKV PRVABC59, Vero cells, post-treatment, 48 h
[7] = tested on: A549 cells; experiment: XTT cell proliferation in A549 cells; type: cell-based, human; conditions: highest concentration used 50.00 µM, sentence also cites [17]
[8] = tested on: ZIKV Paraiba/2015; experiment: Viral inhibition assay, post-treatment, human A549 cells; type: cell-based, Zika virus; conditions: for inhibitor category based on SI-MTT and SI-XTT: Paraiba/2015, A549 cells; for EC50: ZIKV Paraiba/2015, A549 cells, post-treatment, 36 h
[9] = tested on: Vero cells; experiment: XTT cell proliferation assay in Vero cells; type: cell-based, African green monkey; conditions: non-infected Vero cells, 36 h post-treatment
[10] = tested on: ZIKV Paraiba/2015; experiment: Growth kinetics inhibition assay (infectious viral progeny), Vero cells; type: cell-based, Zika virus
[11] = tested on: ZIKV Paraiba/2015; experiment: Viral inhibition assay, pre-treatment (prophylactic), Vero cells; type: cell-based, Zika virus; conditions: for EC50: ZIKV Paraiba/2015, Vero cells, pre-treatment 12 h before infection
[12] = tested on: ZIKV DAKAR B11514; set-up: method as in ref 32, 34 = [32]; conditions: ZIKV DAKAR B11514, Vero cells; cited from earlier work
[13] = MTT cell viability in A549 cells; type: cell-based, human; conditions: human, highest concentration used 50.00 µM, sentence also cites [17]
[14] = tested on: ZIKV KX197192.1 strain; set-up: method as in ref 32, 34 = [32]; conditions: Huh7 cells; cited from earlier work
[15] = tested on: ZIKV PRVABC59; conditions: ZIKV PRVABC59, Vero cells; cited from earlier work
[16] = MTT cell viability assay in Vero cells; type: cell-based, African green monkey; conditions: African green monkey, confluent monolayers; non-infected Vero cells, 36 h post-treatment
[17] = XTT cell proliferation in A549 cells; type: cell-based, human; conditions: human, highest concentration used 50.00 µM, sentence also cites [17]
[18] = tested on: ZIKV MR-766; conditions: ZIKV MR-766, Vero cells; cited from earlier work
[19] = XTT cell proliferation assay in Vero cells; type: cell-based, African green monkey; conditions: African green monkey, confluent monolayers; non-infected Vero cells, 36 h post-treatment
[20] = co-treatment, Paraiba/2015, Vero
[21] = pre-treatment, Paraiba/2015, Vero

**Q.** With “2′,3′,5′-Triacetyl-6-azauridine [Azaribine]” as the molecule, how does the CC50 [1] read?
**A.** Its CC50 is greater than 50 µM.

**Q.** And the “Post-treatment MIC (maximum effective concentration)” value ([2]; Vero cells, ZIKV Paraiba/2015, post-treatment)?
**A.** Its value is greater than 100.00 µM.

**Q.** What about the EC50 ([2]; read-out: EC50) of the same molecule?
**A.** Its EC50 is 1.62 µM.

**Q.** What about the “inhibitor category based on SI-MTT and SI-XTT” value [2] of the same molecule?
**A.** The value was “most potent; also recorded: potent”.

**Q.** What about the “inhibitor category based on SI-MTT and SI-XTT” value [3] of the same molecule?
**A.** The value was “weak”.

**Q.** And the EC50 [3]?
**A.** Its EC50 is 2.43 µM.

**Q.** What about the MIC [3] of the same molecule?
**A.** The MIC was less than 11.10 µM.

**Q.** And the CC50 [4]?
**A.** The CC50 was 237 µM.

**Q.** And the “Co-treatment MIC (maximum effective concentration)” value [5]?
**A.** The value was greater than 100.00 µM.

**Q.** What about the EC50 ([5]; ZIKV Paraiba/2015, Vero cells, co-treatment (virus pre-incubated with compound 1 h), read-out: EC50) of the same molecule?
**A.** The EC50 was 2.59 µM.

**Q.** What about the “inhibitor category based on SI-MTT” value [5, 20] of the same molecule?
**A.** The value was “Potent”.

**Q.** What about the “inhibitor category based on SI-MTT and SI-XTT” value [5, 20] of the same molecule?
**A.** Its value is “potent”.

**Q.** And the “inhibitor category based on SI-XTT” value [5, 20]?
**A.** Its value is “potent”.

**Q.** What about the “inhibitor category based on SI-MTT and SI-XTT” value [6] of the same molecule?
**A.** The value was “moderate”.

**Q.** What about the “PRVABC59 MIC (maximum effective concentration)” value ([6]; new World ZIKV PRVABC59) of the same molecule?
**A.** The value was less than 11.10 µM.

**Q.** And the EC50 [6]?
**A.** Its EC50 is 1.12 µM.

**Q.** What about the CC50 [7] of the same molecule?
**A.** The CC50 was greater than 50 µM.

**Q.** What about the “A549 cells MIC (maximum effective concentration)” value ([8]; A549 cells) of the same molecule?
**A.** Its value is less than 11.10 µM.

**Q.** What about the “inhibitor category based on SI-MTT and SI-XTT” value [8] of the same molecule?
**A.** Its value is “weak”.

**Q.** And the EC50 [8]?
**A.** Its EC50 is 0.68 µM.

**Q.** And the CC50 [9]?
**A.** The CC50 was greater than 1350 µM.

**Q.** What about the “effect on production of infectious viral progeny (viral titers)” value ([10]; 24 h post-treatment and at 10 EC50 at 48 and 72 h post-treatment) of the same molecule?
**A.** The value was “significant effect”.

**Q.** And the “Pre-treatment MIC (maximum effective concentration)” value ([11]; Vero cells, ZIKV Paraiba/2015, pre-treatment)?
**A.** The value was greater than 100.00 µM.

**Q.** What about the EC50 [11] of the same molecule?
**A.** Its EC50 is 47.3 µM.

**Q.** And the “inhibitor category based on SI-MTT” value [11, 21]?
**A.** The value was “moderate”.

**Q.** And the “inhibitor category based on SI-XTT” value [11, 21]?
**A.** Its value is “weakest and weak”.

**Q.** For `O=c1cnn([C@@H]2O[C@H](CO)[C@@H](O)[C@H]2O)c(=O)[nH]1` [Azauridine, 6-azauridine], which EC50 [12] is on record?
**A.** The EC50 was 1.5 µM.

**Q.** And the CC50 [13]?
**A.** Its CC50 is greater than 50 µM.

**Q.** What about the EC50 [14] of the same molecule?
**A.** The EC50 was 2.3 µM.

**Q.** What about the EC50 [15] of the same molecule?
**A.** Its EC50 is 0.61 µM.

**Q.** What about the EC50 [2] of the same molecule?
**A.** Its EC50 is 4.29 µM.

**Q.** What about the EC50 ([2]; Zika virus, Vero) of the same molecule?
**A.** Its EC50 is 3.72 µM.

**Q.** What about the MIC ([2]; Zika virus, read-out: Post-treatment MIC (maximum effective concentration)) of the same molecule?
**A.** The MIC was greater than 100 µM.

**Q.** What about the “inhibitor category based on SI-MTT and SI-XTT” value [2] of the same molecule?
**A.** The value was “moderate to weak”.

**Q.** And the “inhibitor category based on SI-MTT and SI-XTT” value [3]?
**A.** Its value is “moderate”.

**Q.** What about the EC50 ([3]; Zika virus) of the same molecule?
**A.** The EC50 was 0.76 µM.

**Q.** And the MIC ([3]; Zika virus)?
**A.** Its MIC is less than 3.7 µM.

**Q.** What about the CC50 at 36 h [16] of the same molecule?
**A.** The CC50 at 36 h was 156 µM.

**Q.** What about the “Co-treatment MIC (maximum effective concentration)” value [5] of the same molecule?
**A.** Its value is less than 100.00 µM.

**Q.** What about the “inhibitor category based on SI-MTT” value [5, 20] of the same molecule?
**A.** Its value is “weak”.

**Q.** What about the “inhibitor category based on SI-MTT and SI-XTT” value [5, 20] of the same molecule?
**A.** The value was “weak”.

**Q.** And the “inhibitor category based on SI-MTT and SI-XTT” value [6]?
**A.** Its value is “moderate”.

**Q.** And the EC50 ([6]; Zika virus)?
**A.** The EC50 was 1.46 µM.

**Q.** What about the MIC ([6]; Zika virus, new World ZIKV PRVABC59, read-out: PRVABC59 MIC (maximum effective concentration)) of the same molecule?
**A.** Its MIC is less than 11.1 µM.

**Q.** And the CC50 [17]?
**A.** Its CC50 is greater than 50 µM.

**Q.** What about the EC50 [18] of the same molecule?
**A.** Its EC50 is 0.98 µM.

**Q.** And the “inhibitor category based on SI-MTT and SI-XTT” value [8]?
**A.** The value was “moderate”.

**Q.** And the MIC ([8]; Zika virus, in Homo sapiens, read-out: A549 cells MIC (maximum effective concentration))?
**A.** Its MIC is less than 1.23 µM.

**Q.** And the EC50 ([8]; Zika virus)?
**A.** Its EC50 is 0.44 µM.

**Q.** And the CC50 at 36 h [19]?
**A.** Its CC50 at 36 h is greater than 1350 µM.

**Q.** And the “effect on production of infectious viral progeny (viral titers)” value ([10]; 0.1, 1, 10 EC50, all time points (24, 48, 72 h post-treatment), MOI 0.1)?
**A.** Its value is “dose-dependent inhibitory effect”.

**Q.** And the MIC ([11]; Zika virus, read-out: Pre-treatment MIC (maximum effective concentration))?
**A.** The MIC was greater than 100 µM.

**Q.** And the EC50 ([11]; Zika virus)?
**A.** The EC50 was 64.5 µM.

**Q.** What about the “inhibitor category based on SI-MTT and SI-XTT” value [11, 21] of the same molecule?
**A.** Its value is “weak”.

**Q.** And the “inhibitor category based on SI-XTT” value [11, 21]?
**A.** Its value is “weakest”.
